Assay results taken from US6777418B2, “Retinoid compounds (I)” (Syntex (U.S.A.) LLC, priority 2000, dated 2004).

What was measured:
RAR beta = target: T1, RAR beta (Homo sapiens, UniProt P10826); assay: Ligand binding assay, retinoid receptors (Apfel et al.), RAR beta; conditions: second value of the cell, read-out: IC50 nM (alpha/beta/gamma): beta
T1 sequence (P10826 1-455): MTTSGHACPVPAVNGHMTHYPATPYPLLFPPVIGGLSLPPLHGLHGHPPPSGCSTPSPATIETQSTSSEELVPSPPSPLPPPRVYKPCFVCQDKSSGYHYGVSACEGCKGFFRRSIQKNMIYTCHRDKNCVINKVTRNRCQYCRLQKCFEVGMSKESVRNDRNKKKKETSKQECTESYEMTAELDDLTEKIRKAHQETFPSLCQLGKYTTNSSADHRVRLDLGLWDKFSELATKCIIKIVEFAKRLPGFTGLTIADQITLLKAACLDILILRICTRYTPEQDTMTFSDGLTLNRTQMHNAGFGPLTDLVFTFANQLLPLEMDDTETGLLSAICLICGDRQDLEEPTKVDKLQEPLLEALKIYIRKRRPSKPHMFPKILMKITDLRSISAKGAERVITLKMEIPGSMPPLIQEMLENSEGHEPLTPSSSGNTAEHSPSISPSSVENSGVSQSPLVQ
Text: (§1) The retinoic acid receptor agonist selectivity of a compound of the invention may be determined by using ligand binding assays known to the skilled artisan (Apfel et al., Proc. Natl. Acad. Sci., (1992), 89, 7129; Teng et al., J. Med. Chem., (1997), 40, 2445; Bryce et al., U.S. Pat. No. 5,807,900 which are herein incorporated by reference). Treatment with RAR agonists, particularly RAR γ agonists may promote repair of alveolar matrix and septation, which are in important in treating emphysema. Preferably, compounds of the invention are γ selective agonists that bind to the γ receptor with affinities between about 25 nm and about 1000 nm and show a five to ten fold selectivity over binding to the RAR α receptor. It should be noted that RAR agonists that are not γ selective may be effective in treating emphysema. Transactivation, which is the ability of a retinoid to activate gene transcription when gene transcription is initiated by the binding of a ligand to the particular retinoic acid receptor being tested, may be determined by using methods described in the art (Apfel et al., Proc. Natl. Acad. Sci., (1992), 89, 7129; Bernard et al., Biochem. And Biophys. Res. Comm., (1992), 186, 977 which is herein incorporated by reference.
(§2) The RAR α antagonist selectivity of compounds of the invention was determined by the ligand binding assays described in C. Apfel et al. Proc. Nat. Sci. Acad. (USA), 89:7129-7133 (1992).

RAR α = target: T2, RAR α (Homo sapiens, UniProt P10276); assay: Ligand binding assay, retinoid receptors (Apfel et al.), RAR alpha; conditions: first value of the cell, read-out: IC50 nM (alpha/beta/gamma): alpha
T2 sequence (P10276 1-462): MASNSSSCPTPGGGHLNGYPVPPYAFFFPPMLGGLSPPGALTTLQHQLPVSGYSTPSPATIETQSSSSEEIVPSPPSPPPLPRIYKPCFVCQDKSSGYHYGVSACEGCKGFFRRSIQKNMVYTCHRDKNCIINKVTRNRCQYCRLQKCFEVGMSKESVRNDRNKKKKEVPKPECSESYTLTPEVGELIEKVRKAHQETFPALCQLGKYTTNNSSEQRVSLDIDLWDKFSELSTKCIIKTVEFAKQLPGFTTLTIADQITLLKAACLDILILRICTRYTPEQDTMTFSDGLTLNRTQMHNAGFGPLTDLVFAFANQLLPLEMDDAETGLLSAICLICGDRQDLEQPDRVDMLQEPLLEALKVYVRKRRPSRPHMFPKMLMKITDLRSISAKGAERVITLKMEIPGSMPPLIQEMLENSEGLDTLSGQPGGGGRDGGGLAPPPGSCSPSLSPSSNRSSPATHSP
Text: as §1, §2

RAR gamma = target: T3, RAR gamma (Homo sapiens, UniProt P13631); assay: Ligand binding assay, retinoid receptors (Apfel et al.), RAR gamma; conditions: third value of the cell, read-out: IC50 nM (alpha/beta/gamma): gamma
T3 sequence (P13631 1-454): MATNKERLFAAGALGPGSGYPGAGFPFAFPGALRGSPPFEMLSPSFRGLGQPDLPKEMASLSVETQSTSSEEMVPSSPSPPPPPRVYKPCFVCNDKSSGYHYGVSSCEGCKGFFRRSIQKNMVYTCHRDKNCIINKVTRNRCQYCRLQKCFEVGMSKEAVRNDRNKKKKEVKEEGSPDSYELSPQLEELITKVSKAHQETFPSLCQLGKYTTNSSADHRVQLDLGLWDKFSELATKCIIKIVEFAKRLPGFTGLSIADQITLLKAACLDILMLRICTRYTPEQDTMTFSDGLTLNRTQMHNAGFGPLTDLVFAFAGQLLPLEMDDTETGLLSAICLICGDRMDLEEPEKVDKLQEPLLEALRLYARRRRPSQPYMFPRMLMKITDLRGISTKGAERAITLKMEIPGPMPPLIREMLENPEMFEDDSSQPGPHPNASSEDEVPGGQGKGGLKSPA
Text: as §1, §2

CCC(C)CSCc1cc2c(cc1/C=C/c1ccc(C(=O)O)cc1)C(C)(C)CCC2(C)C (centres unmarked) [Compound 3]
melting point: 66.1 to 68.5 °C
IC50 (RAR beta): 100 nM
IC50 (RAR α): 200 nM
IC50 (RAR gamma): 260 nM

CC1(C)CCC(C)(C)c2cc(CO)c(/C=C/c3ccc(C(=O)O)cc3)cc21 [Compound 15]
IC50 (RAR beta): 1000 nM
IC50 (RAR α): 1000 nM
IC50 (RAR gamma): 1800 nM

Cc1cnn(Cc2cc3c(cc2/C=C/c2ccc(C(=O)O)cc2)C(C)(C)CCC3(C)C)c1 [Compound 20]
IC50 (RAR beta): 620 nM
IC50 (RAR α): 950 nM
IC50 (RAR gamma): 670 nM

CCCCSCc1cc2c(cc1/C=C/c1ccc(C(=O)O)cc1)C(C)(C)CCC2(C)C [Compound 2, 4-[(E)-2-(3-Butylthiomethyl-5,5,8,8-tetramethyl-5,6,7,8-tetrahydro-naphthalen-2-yl)vinyl]benzoic acid]
IC50 (RAR beta): 320 nM
IC50 (RAR α): 1000 nM
IC50 (RAR gamma): 190 nM

CC1(C)CCC(C)(C)c2cc(CSCc3ccco3)c(/C=C/c3ccc(C(=O)O)cc3)cc21 [Compound 8]
melting point: 169.7 to 171 °C
IC50 (RAR beta): 450 nM
IC50 (RAR α): 810 nM
IC50 (RAR gamma): 26 nM

COCCCc1cc2c(cc1/C=C/c1ccc(C(=O)O)cc1)C(C)(C)CCC2(C)C [Compound 11, 4-{(E)-2-[3-(3-methoxypropyl}-5,8,8-tetramethyl-5,6,7,8-tetrahydro-naphthalen-2-yl]vinyl}benzoic acid]
melting point: 164.7 to 166 °C
IC50 (RAR beta): 1400 nM
IC50 (RAR α): 1800 nM
IC50 (RAR gamma): 210 nM

CC1(C)CCC(C)(C)c2cc(Cn3cccc3)c(/C=C/c3ccc(C(=O)O)cc3)cc21 [Compound 7, 4-[(E)-2-(5,5,8,8-tetramethyl-3-pyrrol-1-ylmethyl-5,6,7,8-tetrahydro-naphthalen-2-yl)vinyl]benzoic acid]
melting point: 255.6 to 257.4 °C
IC50 (RAR beta): 140 nM
IC50 (RAR α): 260 nM
IC50 (RAR gamma): 17 nM

CC1(C)CCC(C)(C)c2cc(CCCO)c(/C=C/c3ccc(C(=O)O)cc3)cc21 [Compound 12, 4-{(E)-2-[3-(3-hydroxypropyl)-5,5,8,8-tetramethyl-5,6,7,8-tetrahydro-naphthalen-2-yl]vinyl}benzoic acid]
melting point: 212.8 to 213.2 °C

COCc1cc2c(cc1/C=C/c1ccc(C(=O)O)cc1)C(C)(C)CCC2(C)C [Compound 1]
melting point: 184.2 to 187.9 °C
IC50 (RAR beta): 1600 nM
IC50 (RAR α): 3600 nM
IC50 (RAR gamma): 1700 nM

Cn1nnnc1SCc1cc2c(cc1/C=C/c1ccc(C(=O)O)cc1)C(C)(C)CCC2(C)C [Compound 25]
IC50 (RAR beta): 100 nM
IC50 (RAR α): 190 nM
IC50 (RAR gamma): 230 nM

COCCOCc1cc2c(cc1/C=C/c1ccc(C(=O)O)cc1)C(C)(C)CCC2(C)C [Compound 5]
melting point: 55.9 to 58.2 °C

CC(C)SCc1cc2c(cc1/C=C/c1ccc(C(=O)O)cc1)C(C)(C)CCC2(C)C [Compound 13]
melting point: 208.6 to 210.8 °C
